{
  "source": "paper PMC7262789",
  "about": "(Journal of medicinal chemistry, 2019)",
  "data": [
    {"biological_target": "T1, full-length human sEH (Homo sapiens, UniProt P34913)", "T1 sequence (P34913 1-555)": "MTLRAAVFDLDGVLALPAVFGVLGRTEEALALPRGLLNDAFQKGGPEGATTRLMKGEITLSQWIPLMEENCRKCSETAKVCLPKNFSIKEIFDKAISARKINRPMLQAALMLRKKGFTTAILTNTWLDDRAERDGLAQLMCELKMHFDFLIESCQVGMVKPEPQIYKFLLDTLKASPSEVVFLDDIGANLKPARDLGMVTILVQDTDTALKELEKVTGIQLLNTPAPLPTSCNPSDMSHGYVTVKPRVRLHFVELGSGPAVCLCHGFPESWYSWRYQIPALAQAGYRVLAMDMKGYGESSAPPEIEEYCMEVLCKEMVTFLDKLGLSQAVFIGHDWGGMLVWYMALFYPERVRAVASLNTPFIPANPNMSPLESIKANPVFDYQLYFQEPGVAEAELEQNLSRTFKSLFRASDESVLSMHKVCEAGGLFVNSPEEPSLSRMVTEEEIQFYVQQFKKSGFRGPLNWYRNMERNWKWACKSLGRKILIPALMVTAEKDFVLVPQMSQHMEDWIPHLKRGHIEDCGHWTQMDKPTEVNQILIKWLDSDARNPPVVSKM", "assay": "DiFMUP-based phosphatase assay, full-length sEH", "conditions": "substrate", "units": {"Km": "µM"}, "values": [
      {"compound": "Cc1cc(=O)oc2c(F)c(OP(=O)(O)O)c(F)cc12", "note": "[DiFMUP, reference compound]", "Km": 628}
    ]},
    {"biological_target": "T2, C-terminal domain of sEH (sEH-H) (Homo sapiens, UniProt P34913)", "T2 sequence (P34913 235-555 limits assumed)": "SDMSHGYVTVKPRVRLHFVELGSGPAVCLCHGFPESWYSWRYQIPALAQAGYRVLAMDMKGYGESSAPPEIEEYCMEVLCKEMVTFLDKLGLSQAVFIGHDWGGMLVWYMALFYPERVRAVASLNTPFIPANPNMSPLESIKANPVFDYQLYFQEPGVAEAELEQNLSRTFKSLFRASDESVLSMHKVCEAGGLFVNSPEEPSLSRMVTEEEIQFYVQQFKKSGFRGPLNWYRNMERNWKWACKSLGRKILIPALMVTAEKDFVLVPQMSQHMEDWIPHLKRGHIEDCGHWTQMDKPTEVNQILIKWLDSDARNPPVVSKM", "assay": "Differential scanning fluorimetry", "assay_type": "binding", "conditions": "inhibitor 50 μM", "values": [
      {"compound": "O=C(Nc1ccc(I)cc1)NC1CCCCC1", "note": "[CIU, N-cyclohexyl-N′-(4-iodophenyl)urea, reference compound]", "stabilization of the C-terminal domain in DSF": "significantly increased"}
    ]},
    {"biological_target": "T3, isolated N-terminal domain of sEH (sEH-P) (Homo sapiens, UniProt P34913)", "T3 sequence (P34913 1-222)": "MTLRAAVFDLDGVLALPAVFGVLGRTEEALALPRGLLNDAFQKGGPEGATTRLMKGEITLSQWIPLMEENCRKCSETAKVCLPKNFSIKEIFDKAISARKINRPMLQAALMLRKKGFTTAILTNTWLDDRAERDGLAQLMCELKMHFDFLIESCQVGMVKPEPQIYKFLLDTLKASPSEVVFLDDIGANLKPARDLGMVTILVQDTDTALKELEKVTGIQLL", "assay": "DiFMUP-based phosphatase assay, isolated N-terminal domain", "conditions": "substrate", "units": {"Km": "µM"}, "values": [
      {"compound": "Cc1cc(=O)oc2c(F)c(OP(=O)(O)O)c(F)cc12", "note": "[DiFMUP, reference compound]", "Km": 220}
    ]},
    {"biological_target": "T4, recombinant sEH-P domain (N-terminal domain of sEH) (Homo sapiens, UniProt P34913)", "T4 sequence (P34913 1-222)": "T3 sequence (P34913 1-222)", "assay": "FDP-based phosphatase assay, isolated sEH-P domain", "assay_type": "biochemical", "conditions": "FDP substrate, recombinant sEH-P domain", "values": [
      {"compound": "O=C(O)CCCc1nc(-c2ccc(Cl)c(Cl)c2)c(-c2ccncc2)o1", "note": "[28a, 4-(4-(3,4-Dichlorophenyl)-5-(pyridin-4-yl)oxazol-2-yl)butanoic Acid]", "inhibitory potency toward sEH-P (SAR statement in words)": "not favored"},
      {"compound": "COc1ccc(-c2nc(CCC(=O)O)oc2-c2ccccc2)cc1", "note": "[20i, 3-(4-(4-Methoxyphenyl)-5-phenyloxazol-2-yl)propanoic Acid]", "inhibitory potency toward sEH-P (SAR statement in words)": "decreased the activity"},
      {"compound": "O=C(O)CCc1nc(-c2ccccc2F)c(-c2ccccc2)o1", "note": "[20a, 3-(4-(2-Fluorophenyl)-5-phenyloxazol-2-yl)propanoic Acid]", "inhibitory potency toward sEH-P (SAR statement in words)": "poorly tolerated"},
      {"compound": "O=C(O)CCCc1nc(-c2ccc(Cl)c(Cl)c2)co1", "note": "[compound 25, 4-(4-(3,4-Dichlorophenyl)oxazol-2-yl)butanoic Acid]", "inhibitory potency toward sEH-P (SAR statement in words)": "potency dropped dramatically"},
      {"compound": "O=C(O)CCc1nc(-c2ccc(Cl)cc2)c(-c2ccccc2)o1", "note": "[20h, 3-(4-(4-Chlorophenyl)-5-phenyloxazol-2-yl)propanoic Acid]", "inhibitory potency toward sEH-P (SAR statement in words)": "slightly enhanced inhibitory potency"},
      {"compound": "O=C(O)CCc1nc(-c2cc(Cl)cc(Cl)c2)c(-c2ccccc2)o1", "note": "[20m, 3-(4-(3,5-Dichlorophenyl)-5-phenyloxazol-2-yl)propanoic Acid]", "inhibitory potency toward sEH-P (SAR statement in words)": "did not lead to potency improvement"},
      {"compound": "C#Cc1cccc(-c2oc(CCCC(=O)O)nc2-c2ccc(Cl)c(Cl)c2)c1", "note": "[28j, 4-(4-(3,4-Dichlorophenyl)-5-(3-ethynylphenyl)oxazol-2-yl)butanoic Acid]", "inhibitory potency toward sEH-P (SAR statement in words)": "slight preference"},
      {"compound": "O=C(O)CSc1nc(-c2ccccc2)c(-c2ccccc2)o1", "note": "[compound 9, 2-((4,5-Diphenyloxazol-2-yl)thio)acetic Acid]", "inhibitory potency toward sEH-P (SAR statement in words)": "slightly diminished the potency"},
      {"compound": "N#Cc1ccc(-c2nc(CCC(=O)O)oc2-c2ccccc2)cc1", "note": "[20g, 3-(4-(4-Cyanophenyl)-5-phenyloxazol-2-yl)propanoic Acid]", "inhibitory potency toward sEH-P (SAR statement in words)": "loss of activity"},
      {"compound": "O=C(O)CCc1nc(-c2ccccc2Cl)c(-c2ccccc2)o1", "note": "[20b, 3-(4-(2-Chlorophenyl)-5-phenyloxazol-2-yl)propanoic Acid]", "inhibitory potency toward sEH-P (SAR statement in words)": "poorly tolerated"},
      {"compound": "N#Cc1cccc(-c2oc(CCCC(=O)O)nc2-c2ccc(Cl)c(Cl)c2)c1", "note": "[28g, 4-(5-(3-Cyanophenyl)-4-(3,4-dichlorophenyl)oxazol-2-yl)butanoic Acid]", "inhibitory potency toward sEH-P (SAR statement in words)": "slight preference"},
      {"compound": "O=C(O)CCc1nc(-c2ccc(Cl)cc2Cl)c(-c2ccccc2)o1", "note": "[20l, 3-(4-(2,4-Dichlorophenyl)-5-phenyloxazol-2-yl)propanoic Acid]", "inhibitory potency toward sEH-P (SAR statement in words)": "did not lead to potency improvement"},
      {"compound": "O=C(O)CCCc1nc(-c2ccc(Cl)c(Cl)c2)c(-c2cccc(F)c2)o1", "note": "[28e, 4-(4-(3,4-Dichlorophenyl)-5-(3-fluorophenyl)oxazol-2-yl)butanoic Acid]", "inhibitory potency toward sEH-P (SAR statement in words)": "slight preference"},
      {"compound": "O=C(O)c1ccccc1-c1nc(-c2ccc(Cl)c(Cl)c2)c(-c2ccccc2)o1", "note": "[22c, 2-(4-(3,4-Dichlorophenyl)-5-phenyloxazol-2-yl)benzoic Acid]", "inhibitory potency toward sEH-P (SAR statement in words)": "did not retain this high potency"},
      {"compound": "O=C(O)CCc1nc(-c2cccc(F)c2)c(-c2ccccc2)o1", "note": "[20d, 3-(4-(3-Fluorophenyl)-5-phenyloxazol-2-yl)propanoic Acid]", "inhibitory potency toward sEH-P (SAR statement in words)": "retained similar potency as 5"},
      {"compound": "O=C(O)CCc1nc(-c2ccc(C(F)(F)F)cc2)c(-c2ccccc2)o1", "note": "[20f, 3-(5-Phenyl-4-(4-(trifluoromethyl)phenyl)oxazol-2-yl)propanoic Acid]", "inhibitory potency toward sEH-P (SAR statement in words)": "loss of activity"},
      {"compound": "O=C(O)CCCc1nc(-c2ccc(Cl)c(Cl)c2)c(Br)o1", "note": "[compound 26, 4-(5-Bromo-4-(3,4-dichlorophenyl)oxazol-2-yl)butanoic Acid]", "inhibitory potency toward sEH-P (SAR statement in words)": "partially restored"},
      {"compound": "NC(=O)CCc1nc(-c2ccccc2)c(-c2ccccc2)o1", "note": "[compound 12, 3-(4,5-Diphenyloxazol-2-yl)propanamide]", "inhibitory potency toward sEH-P (SAR statement in words)": "complete loss of activity"},
      {"compound": "O=C(O)CCc1nc(-c2ccc(F)cc2)c(-c2ccccc2)o1", "note": "[20e, 3-(4-(4-Fluorophenyl)-5-phenyloxazol-2-yl)propanoic Acid]", "inhibitory potency toward sEH-P (SAR statement in words)": "only slightly diminished the potency"},
      {"compound": "O=C(O)CCCc1nc(-c2ccc(Cl)c(Cl)c2)c(-c2cccnc2)o1", "note": "[28b, 4-(4-(3,4-Dichlorophenyl)-5-(pyridin-3-yl)oxazol-2-yl)butanoic Acid]", "inhibitory potency toward sEH-P (SAR statement in words)": "not favored"},
      {"compound": "N#Cc1cccc(-c2nc(CCC(=O)O)oc2-c2ccccc2)c1", "note": "[20c, 3-(4-(3-Cyanophenyl)-5-phenyloxazol-2-yl)propanoic Acid]", "inhibitory potency toward sEH-P (SAR statement in words)": "retained similar potency as 5"},
      {"compound": "O=C(O)c1ccc(-c2nc(-c3ccc(Cl)c(Cl)c3)c(-c3ccccc3)o2)cc1", "note": "[22e, 4-(4-(3,4-Dichlorophenyl)-5-phenyloxazol-2-yl)benzoic Acid]", "inhibitory potency toward sEH-P (SAR statement in words)": "did not retain this high potency"}
    ]},
    {"biological_target": "T4, recombinant sEH-P domain (N-terminal domain of sEH)", "assay": "FDP-based phosphatase assay, isolated sEH-P domain", "assay_type": "biochemical", "conditions": "rigidization of the ethyl linker by a double bond", "units": {"loss of potency": "fold"}, "values": [
      {"compound": "O=C(O)/C=C/c1nc(-c2ccc(Cl)c(Cl)c2)c(-c2ccccc2)o1", "note": "[22a, 3-(4-(3,4-Dichlorophenyl)-5-phenyloxazol-2-yl)acrylic Acid]", "loss of potency": 2}
    ]},
    {"biological_target": "T4, recombinant sEH-P domain (N-terminal domain of sEH)", "assay": "FDP-based phosphatase assay, isolated sEH-P domain", "assay_type": "biochemical", "conditions": "second chlorine at meta position, compared with 20h", "values": [
      {"compound": "O=C(O)CCc1nc(-c2ccc(Cl)c(Cl)c2)c(-c2ccccc2)o1", "note": "[20k, 3-(4-(3,4-Dichlorophenyl)-5-phenyloxazol-2-yl)propanoic Acid]", "increase in sEH-P inhibition": "more than 10 fold"}
    ]},
    {"biological_target": "T5, N-terminal domain of sEH (sEH-P) (Homo sapiens, UniProt P34913)", "T5 sequence (P34913 2-224)": "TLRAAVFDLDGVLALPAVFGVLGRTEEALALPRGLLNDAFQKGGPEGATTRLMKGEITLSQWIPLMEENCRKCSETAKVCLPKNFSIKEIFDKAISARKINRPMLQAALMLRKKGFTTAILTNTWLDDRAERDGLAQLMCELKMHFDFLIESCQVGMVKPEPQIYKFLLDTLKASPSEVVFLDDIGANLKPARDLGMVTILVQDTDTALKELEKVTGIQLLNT", "assay": "Differential scanning fluorimetry", "assay_type": "binding", "conditions": "inhibitor 50 μM", "values": [
      {"compound": "CC(=O)N[C@@H](CSC/C=C(\\C)CC/C=C(\\C)CCC=C(C)C)C(=O)O", "note": "[compound 2, N-acetyl-S-farnesyl-L-cysteine]", "stabilization of the N-terminal domain in DSF": "able to stabilize"},
      {"compound": "O=C(Nc1ccc(I)cc1)NC1CCCCC1", "note": "[CIU, N-cyclohexyl-N′-(4-iodophenyl)urea, reference compound]", "stabilization of the N-terminal domain in DSF": "no stabilizing effect"}
    ]}
  ]
}
